Measurements from patent publication US11925655B2, “FAP-activated therapeutic agents, and uses related thereto” (Bach Biosciences, LLC, priority 2014, dated 2024).
Like-named read-outs stand apart in the source and are kept apart here.

How the values were obtained:
[1] = system: HEK-mFAP cells; experiment: CellTiter-Blue cell viability assay with HEK-mFAP cells; format: cell-based, human; settings: Homo sapiens, 5107DOX assay, 72 hour incubation
[2] = biological target: T1, FAP (Homo sapiens, UniProt Q12884); experiment: Specificity of activation: digest with FAP; format: biochemical; settings: 100 μM prodrug, 24 hours at 37° C.; as much doxorubicin as from the other prodrugs
T1 sequence (Q12884 1-760): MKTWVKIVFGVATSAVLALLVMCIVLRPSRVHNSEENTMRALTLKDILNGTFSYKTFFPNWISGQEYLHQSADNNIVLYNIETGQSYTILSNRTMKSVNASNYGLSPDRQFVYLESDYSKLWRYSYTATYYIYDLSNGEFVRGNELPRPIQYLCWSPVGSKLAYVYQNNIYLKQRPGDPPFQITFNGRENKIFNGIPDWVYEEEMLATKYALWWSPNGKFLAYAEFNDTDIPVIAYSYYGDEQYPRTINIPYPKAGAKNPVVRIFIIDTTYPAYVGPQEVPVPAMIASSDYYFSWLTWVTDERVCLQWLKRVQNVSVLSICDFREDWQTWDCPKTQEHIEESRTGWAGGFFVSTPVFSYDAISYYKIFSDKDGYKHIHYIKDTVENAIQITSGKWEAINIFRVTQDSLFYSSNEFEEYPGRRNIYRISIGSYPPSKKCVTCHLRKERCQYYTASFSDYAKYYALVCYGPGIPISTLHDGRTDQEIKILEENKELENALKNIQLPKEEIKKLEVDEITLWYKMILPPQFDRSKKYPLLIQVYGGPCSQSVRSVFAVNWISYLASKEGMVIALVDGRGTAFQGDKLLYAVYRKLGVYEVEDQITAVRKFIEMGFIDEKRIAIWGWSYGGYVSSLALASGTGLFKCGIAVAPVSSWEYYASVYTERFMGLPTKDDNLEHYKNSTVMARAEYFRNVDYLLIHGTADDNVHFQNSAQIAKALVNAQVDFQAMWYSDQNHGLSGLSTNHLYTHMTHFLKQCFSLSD
Method: (§1) Total doxorubicin was measured for each assay.

[3] = biological target: dipeptidyl peptidase IV (DPP IV) (Homo sapiens, UniProt P27487); experiment: Specificity of activation: digest with DPP IV; format: biochemical; settings: 100 μM prodrug, 24 hours at 37° C.
Method: as §1

[4] = biological target: T2, PREP (Homo sapiens, UniProt P48147); experiment: Specificity of activation: digest with PREP; format: biochemical; settings: 100 μM prodrug, 24 hours at 37° C.
T2 sequence (P48147 1-710): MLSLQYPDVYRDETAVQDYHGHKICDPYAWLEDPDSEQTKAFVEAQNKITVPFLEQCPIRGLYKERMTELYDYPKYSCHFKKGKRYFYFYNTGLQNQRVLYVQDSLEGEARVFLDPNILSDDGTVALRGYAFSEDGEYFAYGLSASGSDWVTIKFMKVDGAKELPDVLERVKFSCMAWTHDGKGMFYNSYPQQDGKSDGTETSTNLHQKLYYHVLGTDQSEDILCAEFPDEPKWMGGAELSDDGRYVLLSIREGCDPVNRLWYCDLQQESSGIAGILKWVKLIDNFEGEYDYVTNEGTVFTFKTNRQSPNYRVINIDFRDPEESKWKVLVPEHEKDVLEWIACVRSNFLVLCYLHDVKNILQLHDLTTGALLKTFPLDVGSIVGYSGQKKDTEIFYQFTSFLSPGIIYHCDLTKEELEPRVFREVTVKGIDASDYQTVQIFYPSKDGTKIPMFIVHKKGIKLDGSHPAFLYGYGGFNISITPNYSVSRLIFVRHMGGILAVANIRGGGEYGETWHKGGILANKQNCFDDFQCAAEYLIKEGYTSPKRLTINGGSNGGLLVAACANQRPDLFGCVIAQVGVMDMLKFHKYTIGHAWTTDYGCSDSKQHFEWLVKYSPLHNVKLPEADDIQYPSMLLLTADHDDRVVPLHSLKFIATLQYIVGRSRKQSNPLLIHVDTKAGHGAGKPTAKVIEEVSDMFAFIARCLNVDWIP
Method: as §1

[5] = system: CT26 cells; experiment: CellTiter-Blue cell viability assay with CT26 cells; format: cell-based; settings: Mus musculus

Sequence of dipeptidyl peptidase IV (DPP IV) (P27487 whole entry, species assumed): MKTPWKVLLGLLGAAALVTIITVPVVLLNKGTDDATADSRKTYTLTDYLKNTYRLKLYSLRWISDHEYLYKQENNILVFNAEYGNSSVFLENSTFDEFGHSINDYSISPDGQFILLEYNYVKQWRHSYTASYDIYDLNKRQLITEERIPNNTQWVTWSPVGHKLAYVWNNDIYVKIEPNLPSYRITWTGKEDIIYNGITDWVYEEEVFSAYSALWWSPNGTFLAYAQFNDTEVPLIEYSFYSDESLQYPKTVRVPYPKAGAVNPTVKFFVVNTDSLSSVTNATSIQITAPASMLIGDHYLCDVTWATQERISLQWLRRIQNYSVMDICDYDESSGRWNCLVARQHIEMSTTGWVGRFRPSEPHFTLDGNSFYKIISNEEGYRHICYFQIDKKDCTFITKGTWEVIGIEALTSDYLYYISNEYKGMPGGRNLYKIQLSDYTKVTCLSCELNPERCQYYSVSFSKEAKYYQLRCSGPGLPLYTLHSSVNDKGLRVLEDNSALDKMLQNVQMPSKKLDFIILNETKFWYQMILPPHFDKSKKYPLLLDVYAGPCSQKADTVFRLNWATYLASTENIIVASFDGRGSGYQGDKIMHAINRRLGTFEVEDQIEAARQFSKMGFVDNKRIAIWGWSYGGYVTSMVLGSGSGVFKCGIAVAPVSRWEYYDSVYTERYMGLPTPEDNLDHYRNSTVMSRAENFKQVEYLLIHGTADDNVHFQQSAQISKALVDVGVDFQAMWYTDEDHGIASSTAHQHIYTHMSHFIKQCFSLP

Row | doxorubicin released by FAP, relative amount [2] | doxorubicin released by DPP IV [3] | doxorubicin released by PREP [4] | EC50 ([5]; read-out: EC50 (prodrug + 50 nM FAP)) | EC50 ([5]; read-out: EC50 (prodrug + 50 nM PREP)) | EC50 ([5]; read-out: EC50 (prodrug alone)) | Compound | EC50 ([1]; read-out: EC50 (prodrug + 100 uM 5057-2)) | EC50 ([1]; read-out: EC50 (prodrug alone))
1 |  |  |  |  |  |  | COc1cccc2c1C(=O)c1c(O)c3c(c(O)c1C2=O)C[C@@](O)(C(=O)CO)C[C@@H]3OC1CC(NC(=O)[C@@H]2CC(F)(F)CN2C(=O)[C@@H](C)NC(=O)c2ccnc3ccccc23)C(O)C(C)O1 (some centres unmarked) [Compound 5107DOX] | > 100 µM | 0.94 µM
2 | about 15% | essentially none | essentially none | 26 µM | 210 µM | 190 µM | COc1cccc2c1C(=O)c1c(O)c3c(c(O)c1C2=O)C[C@@](O)(C(=O)CO)C[C@@H]3OC1CC(NC(=O)[C@@H]2CCCN2C(=O)[C@@H](C)NC(=O)[C@H](CO)NC(=O)CCC(=O)O)C(O)C(C)O1 (some centres unmarked) [Compound 3996DOX] |  | 
